From patent US8486962B2, “Antifungal agents” (F2G Ltd., priority 2005, dated 2013)
In brackets after ≈: the same amount, converted by molar mass.

Legend:
Aspergillus flavus = experiment: MIC, YAG medium, Aspergillus flavus; assay type: cell-based; settings: Aspergillus flavus; YAG medium; read-out: MIC A Flavus 01
Summary of the method: (§1)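 Broth microdilution over doubling dilutions (50-0.05 mg/L). C. albicans in RPMI with 2% glucose and 0.135M MOPS (pH7.0), 1-2×10^3 cfu/ml, 24-48 hrs at 35° C; MIC = >80% growth inhibition by OD485. Aspergillus spp. in YAG (1% glucose, 1% ammonium chloride, 0.5% yeast extract), 1-2×10^4 cfu/ml, 24 hrs, >70% inhibition.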

Aspergillus terreus = experiment: MIC, YAG medium, Aspergillus terreus; assay type: cell-based; settings: Aspergillus terreus; YAG medium; read-out: MIC A Terreus 4
Summary of the method: as §1

Aspergillus niger = experiment: MIC, YAG medium, Aspergillus niger; assay type: cell-based; settings: Aspergillus niger; YAG medium; read-out: MIC A Niger 1
Summary of the method: as §1

[1] = test system: Aspergillus fumigatus AF293; experiment: MIC, YAG medium, Aspergillus fumigatus AF293; assay type: cell-based; settings: Aspergillus fumigatus, AF293; YAG medium; read-out: MIC A Fum. 293
Summary of the method: as §1

[2] = test system: Aspergillus fumigatus AF210; experiment: MIC, YAG medium, Aspergillus fumigatus AF210; assay type: cell-based; settings: Aspergillus fumigatus, AF210; YAG medium; read-out: MIC A Fum. 210
Summary of the method: as §1

A Terreus 49 = experiment: MIC, YAG medium, A Terreus 49; assay type: cell-based, Aspergillus terreus; settings: Aspergillus terreus; YAG medium; read-out: MIC A Terreus 49
Description: Measurement of Minimum Inhibitory Concentrations (MICs)
Between 1 and 5 mgs of compound were accurately weighed out into a sterile Eppendorf tube. The compound was dissolved in DMSO to give a solution containing 5 mg/ml. Tubes were stored at −20° C. until required.
On the day of testing thawed solutions were vortex mixed to ensure homogeneity. 30 μl of solution was removed and added to 570 μl of sterile water in a separate sterile Eppendorf. The thoroughly mixed solution was used to prepare a series of doubling dilutions in water, in a deep well plate. Eleven replicate plates were prepared using a Minitrak by aspirating 20 μl from each well into eleven clear polystyrene 96 well plates.
Spores of Aspergillus spp (Aspergillus fumigatus, Aspergillus terreus, Aspergillus niger and Aspergillus flavus) were harvested from cultures grown on Sabarauds agar for 5 days, and resuspended in PBS/Tween 80 to approx 1×10^7 cfu/ml Other filamentous fungi (Fusarium solani, Scedosporium spp., Trichophyton spp., Absidia corymbifera), were grown on Sabarauds agar for 2-10 days and spores/hyphae resuspended in PBS/Tween to give approx 1×10^7 cfU/ml. Candida species (Candida albicans, Candida glabrata, Candida krusei, Candida parapsilosis and Candida tropicalis) were grown on Sabarauds agar, cells were harvested from the agar using a sterile loop and resuspended in PBS/Tween 80 to approx 1×10^6 cfu/ml. Each organism suspension was diluted in RPMI medium, containing 2% glucose and 0.135M MOPS buffer (pH7.0) to 2×10^4 cfu/ml for Aspergillus spp and other filamentous fungi and 2×10^3 cfu/ml for yeast. 80 μl of an organism suspension was added to each well of the plate containing drug dilutions.
This produced MIC plates with a drug range 50-0.05 mg/L and organism inocula of 1-2×10^4 cfu/ml for Aspergillus spp and other filamentous fungi and 1-2×10^3 cfu/ml for yeasts. All plates were incubated for 24-48 hrs at 35° C. Growth was assessed by monitoring the optical density at 485 nm for each well. The MIC of a compound is the lowest drug concentration that inhibits growth of an organism by >80% compared with a drug free control. MICs are recorded as mg/L. Other growth media can be used for susceptibility testing, and the activity of the described compounds can also be assessed in a medium comprising, 1% glucose, 1% ammonium chloride and 0.5% yeast extract (YAG medium). To perform MIC tests in this medium, dilutions of compounds are prepared in microtitre plates as described above. Fungal strains to be tested are grown and harvested in an identical manner to that described above, each organism suspension is then diluted in YAG medium to 2×10^4 cfu/ml for Aspergillus spp and other filamentous fungi and 2×10^3 cfu/ml for yeast. 80 μl of an organism suspension was added to each well of the plate containing drug dilutions. This produced MIC plates with a drug range 50-0.05 mg/L and organism inocula of 1-2×10^4 cfu/ml for Aspergillus spp and other filamentous fungi and 1-2×10^3 cfu/ml for yeasts. All plates were incubated for 24 hrs at 35° C. Growth was assessed by monitoring the optical density at 485 nm for each well. The MIC of a compound is the lowest drug concentration that inhibits growth of an organism by >70% compared with a drug free control. MICs are recorded as mg/L. In cases where the MIC of an organism is […]0.05 mg/L the MIC is repeated using a concentration range of 0.5-0.0005 mg/L. MIC tests in YAG medium have more clear-cut endpoints and have slightly lower MICS than those performed in RPMI medium.
The following organisms were tested: Aspergillus fumigatus AF293 and Aspergillus fumigatus AF210, Aspergillus niger, Aspergillus terreus, Aspergillus favus, Candida albicans, Candida krusei, Candida tropicalis, Candida glabrata, Candida parapsilosis, Trichophyton rubrum, Trichophyton mentagrophytes, Scedosporium prolificans, Scedosporium apiospermum, Absidia corymbifera, Fusarium solani.

| Compound | MIC (Aspergillus flavus) | MIC (Aspergillus terreus) | MIC (Aspergillus niger) | MIC [1] | MIC [2] | MIC (A Terreus 49) |
| --- | --- | --- | --- | --- | --- | --- |
| COc1ccc(NC(=O)C(=O)c2c(-c3ccccc3)cc3ccccn23)c(OC)c1 [Example 145, N-(2,4-Dimethoxy-phenyl)-2-oxo-(2-phenyl-indolizin-3-yl)-acetamide] | 0.031 µg/mL (≈ 0.0774 µM) | 0.031 µg/mL (≈ 0.0774 µM) | 0.031 µg/mL (≈ 0.0774 µM) | 0.5 µg/mL (≈ 1.25 µM) | 0.5 µg/mL (≈ 1.25 µM) | 0.004 µg/mL (≈ 0.00999 µM) |
| COc1ccc(NC(=O)C(=O)c2c(-c3ccccc3)cc3ccccn23)cn1 [Example 146, N-(6-Methoxy-pyridin-3-yl)-2-oxo-2-(2-phenyl-indolizin-3-yl)-acetamide] | 0.062 µg/mL (≈ 0.167 µM) | 0.062 µg/mL (≈ 0.167 µM) | 0.25 µg/mL (≈ 0.673 µM) | 0.5 µg/mL (≈ 1.35 µM) | 0.5 µg/mL (≈ 1.35 µM) | 0.03 µg/mL (≈ 0.0808 µM) |
| COc1ccc(NC(=O)C(=O)c2c(-c3ccc(F)cc3)cc3ccccn23)c(OC)c1 [Example 149, N-(2,4-Dimethoxy-phenyl)-2-[2-(4-fluoro-phenyl)-indolizin-3-yl]-2-oxo-acetamide] | 0.031 µg/mL (≈ 0.0741 µM) | 0.06 µg/mL (≈ 0.143 µM) | 0.031 µg/mL (≈ 0.0741 µM) | 0.5 µg/mL (≈ 1.19 µM) | 1.6 µg/mL (≈ 3.82 µM) | 0.031 µg/mL (≈ 0.0741 µM) |
| N#Cc1ccc(NC(=O)C(=O)c2c(-c3ccccc3)cc3ccccn23)cc1 [Example 150, N-(4-Cyano-phenyl)-2-oxo-2-(2-phenyl-indolizin-3-yl)-acetamide] | 0.125 µg/mL (≈ 0.342 µM) | 0.5 µg/mL (≈ 1.37 µM) | 0.25 µg/mL (≈ 0.684 µM) | 1.6 µg/mL (≈ 4.38 µM) | 1.6 µg/mL (≈ 4.38 µM) | 0.12 µg/mL (≈ 0.328 µM) |

Results, then the compound that gave them:

| MIC (Aspergillus flavus) | MIC (Aspergillus terreus) | MIC (Aspergillus niger) | MIC [1] | MIC [2] | MIC (A Terreus 49) | Compound |
| --- | --- | --- | --- | --- | --- | --- |
| 0.031 µg/mL (≈ 0.0778 µM) | 0.031 µg/mL (≈ 0.0778 µM) | 0.031 µg/mL (≈ 0.0778 µM) | 0.12 µg/mL (≈ 0.301 µM) | 0.12 µg/mL (≈ 0.301 µM) | 0.015 µg/mL (≈ 0.0376 µM) | COC(=O)c1ccc(NC(=O)C(=O)c2c(-c3ccccc3)cc3ccccn23)cc1 [Example 140, 4-[2-Oxo-2-(2-phenyl-indolizin-3-yl)-acetylamino]-benzoic acid methyl ester] |
| 0.008 µg/mL (≈ 0.0201 µM) | 0.031 µg/mL (≈ 0.0778 µM) | 0.25 µg/mL (≈ 0.627 µM) | 0.12 µg/mL (≈ 0.301 µM) | 0.12 µg/mL (≈ 0.301 µM) | 0.015 µg/mL (≈ 0.0376 µM) | COC(=O)c1cccc(NC(=O)C(=O)c2c(-c3ccccc3)cc3ccccn23)c1 [Example 141, 3-[2-Oxo-2-(2-phenyl-indolizin-3-yl)-acetylamino]-benzoic acid methyl ester] |
| 0.031 µg/mL (≈ 0.0727 µM) | 0.031 µg/mL (≈ 0.0727 µM) | 0.015 µg/mL (≈ 0.0352 µM) | 0.061 µg/mL (≈ 0.143 µM) | 0.06 µg/mL (≈ 0.141 µM) | 0.008 µg/mL (≈ 0.0188 µM) | CCCOC(=O)c1ccc(NC(=O)C(=O)c2c(-c3ccccc3)cc3ccccn23)cc1 [Example 143, 4-[2-Oxo-2-(2-phenyl-indolizin-3-yl)-acetylamino]-benzoic acid propyl ester] |
| 0.015 µg/mL (≈ 0.0341 µM) | 0.062 µg/mL (≈ 0.141 µM) | 0.008 µg/mL (≈ 0.0182 µM) | 0.06 µg/mL (≈ 0.136 µM) | 0.062 µg/mL (≈ 0.141 µM) | 0.008 µg/mL (≈ 0.0182 µM) | CCCCOC(=O)c1ccc(NC(=O)C(=O)c2c(-c3ccccc3)cc3ccccn23)cc1 [Example 144, 4-[2-Oxo-2-(2-phenyl-indolizin-3-yl)-acetylamino]-benzoic acid butyl ester] |
| 0.008 µg/mL (≈ 0.0213 µM) | 0.008 µg/mL (≈ 0.0213 µM) | 0.062 µg/mL (≈ 0.165 µM) | 0.12 µg/mL (≈ 0.319 µM) | 0.12 µg/mL (≈ 0.319 µM) | 0.008 µg/mL (≈ 0.0213 µM) | COc1ccc(NC(=O)C(=O)c2c(-c3cccs3)cc3ccccn23)cc1 [Example 148, N-(4-Methoxy-phenyl)-2-oxo-2-(2-thiophen-2-yl-indolizin-3-yl)-acetamide] |
